Data: US20070049564A1 (Wyeth, priority 2005, published 2007)
Converted amounts (≈) assume the structure as drawn. Read-outs that look alike come from different tables or passages of the source.

Experiments:
E. coli GC 2236 = test: MIC, broth microdilution; details: Escherichia coli, GC2236, E. coli GC 2236
E. coli GC 2235 = test: MIC, broth microdilution; details: Escherichia coli, GC2235, E. coli GC 2235
E. coli GC 2233 = test: MIC, broth microdilution; details: Escherichia coli, GC2233, E. coli GC 2233
E. coli GC 2270 = test: MIC, broth microdilution; details: Escherichia coli, GC2270, E. coli GC 2270
E. coli GC 2271 = test: MIC, broth microdilution; details: Escherichia coli, GC2271, E. coli GC 2271
Procedure: (§1) Antimicrobial susceptibility testing. The in vitro activities of the antibiotics are determined by the broth microdilution method as recommended by the National Committee for Clinical Laboratory Standards (NCCLS) (1). Mueller-Hinton II broth (MHBII)(BBL Cockeysville, Md.) is the medium employed in the testing procedures. Microtiter plates containing serial dilutions of each antimicrobial agent are inoculated with each organism to yield the appropriate density (10^5 CFU/ml) in a 100 μl final volume. The plates are incubated for 18-22 hours at 35° C. in ambient air.
Representative compounds were first incubated in mouse serum for an hour prior to the in vitro testing against a panel of selected gram-positive and gram-negative bacteria strains. All compounds were also pre-incubated in water for an hour prior to testing as control.

E. coli GC 4559 = test: MIC, broth microdilution; details: Escherichia coli, GC4559, E. coli GC 4559
E. coli GC 4560 = test: MIC, broth microdilution; details: Escherichia coli, GC4560, E. coli GC 4560
E. coli GC 6465 = test: MIC, broth microdilution; details: Escherichia coli, GC6465, E. coli GC 6465
E. coli GC 2203 = test: MIC, broth microdilution; details: Escherichia coli, GC2203, E. coli GC 2203
E. coli GC 1073 = test: MIC, broth microdilution; details: Escherichia coli, GC1073, E. coli GC 1073
P. aeruginosa GC 2214 = test: MIC, broth microdilution; details: Pseudomonas aeruginosa, GC2214, P. aeruginosa GC 2214
S. aureus GC 6467 = test: MIC, broth microdilution; details: Staphylococcus aureus, GC6467, S. aureus GC 6467
S. aureus GC 4536 = test: MIC, broth microdilution; details: Staphylococcus aureus, GC4536, S. aureus GC 4536
S. aureus GC 6469 = test: MIC, broth microdilution; details: Staphylococcus aureus, GC6469, S. aureus GC 6469
E. faecalis GC 4555 = test: MIC, broth microdilution; details: Enterococcus faecalis, GC4555, E. faecalis GC 4555
E. faecalis GC 2265 = test: MIC, broth microdilution; details: Enterococcus faecalis, GC2265, E. faecalis GC 2265
E. faecalis GC 2242 = test: MIC, broth microdilution; details: Enterococcus faecalis, GC2242, E. faecalis GC 2242
S. agalactiae GC 4564 = test: MIC, broth microdilution; details: Streptococcus agalactiae, GC4564, S. agalactiae GC 4564
Procedure: as §1
Representative compounds were first incubated in mouse serum for an hour prior to the in vitro testing against a panel of selected gram-positive and gram-negative bacteria strains. All compounds were also pre-incubated in water for an hour prior to testing as control. Representative compounds of Formula I were incubated in human serum prior to MIC determination.

Staph. = test: Range of MIC for Staph. strains, including MRSA; details: Staphylococcus aureus, MRSA
[1] = read-out: Range of MIC, Staph (Mouse Serum)
[2] = read-out: Range of MIC, Staph (Water)

SMILES	MIC (E. coli GC 2236; Mouse Serum pre-incubation) [µg/mL]	MIC (E. coli GC 2236; Water pre-incubation) [µg/mL]	MIC (E. coli GC 2235; Mouse Serum pre-incubation) [µg/mL]	MIC (E. coli GC 2235; Water pre-incubation) [µg/mL]	MIC (E. coli GC 2233; Mouse Serum pre-incubation) [µg/mL]	MIC (E. coli GC 2233; Water pre-incubation) [µg/mL]	MIC (E. coli GC 2270; Mouse Serum pre-incubation) [µg/mL]	MIC (E. coli GC 2270; Water pre-incubation) [µg/mL]	MIC (E. coli GC 2271; Mouse Serum pre-incubation) [µg/mL]	MIC (E. coli GC 2271; Water pre-incubation) [µg/mL]	MIC (E. coli GC 4559; Mouse Serum pre-incubation) [µg/mL]	MIC (E. coli GC 4559; Water pre-incubation) [µg/mL]	MIC (E. coli GC 4560; Mouse Serum pre-incubation) [µg/mL]	MIC (E. coli GC 4560; Water pre-incubation) [µg/mL]	MIC (E. coli GC 6465; Mouse Serum pre-incubation) [µg/mL]	MIC (E. coli GC 6465; Water pre-incubation) [µg/mL]	MIC (E. coli GC 2203; Mouse Serum pre-incubation) [µg/mL]	MIC (E. coli GC 2203; Water pre-incubation) [µg/mL]	MIC (E. coli GC 1073; Mouse Serum pre-incubation) [µg/mL]	MIC (E. coli GC 1073; Water pre-incubation) [µg/mL]	other results
CCCN(CC(=O)Nc1cc(N(C)C)c2c(c1O)C(=O)C1=C(O)[C@]3(O)C(=O)C(C(N)=O)=C(O)[C@@H](N(C)C)[C@@H]3C[C@@H]1C2)C(=O)OCc1ccccc1 [Example 14, benzyl 2-{[(5aR,6aS,7S,10aS)-9-(aminocarbonyl)-4,7-bis(dimethylamino)-1,8,10a,11-tetrahydroxy-10,12-dioxo-5,5a,6,6a,7,10,10a,12-octahydrotetracen-2-yl]amino}-2-oxoethyl(propyl)carbamate]	> 64	> 64	32 (≈ 45.3 µM)	64 (≈ 90.7 µM)	> 64	> 64	> 64	> 64	> 64	> 64	> 64	> 64	4 (≈ 5.67 µM)	4 (≈ 5.67 µM)	> 64	> 64	32 (≈ 45.3 µM)	64 (≈ 90.7 µM)	> 64	> 64	MIC (P. aeruginosa GC 2214; Mouse Serum pre-incubation): > 64 µg/mL; MIC (P. aeruginosa GC 2214; Water pre-incubation): > 64 µg/mL; MIC (S. aureus GC 6467; Mouse Serum pre-incubation): 2 µg/mL (≈ 2.83 µM); MIC (S. aureus GC 6467; Water pre-incubation): 4 µg/mL (≈ 5.67 µM); MIC (S. aureus GC 4536; Mouse Serum pre-incubation): 2 µg/mL (≈ 2.83 µM); MIC (S. aureus GC 4536; Water pre-incubation): 2 µg/mL (≈ 2.83 µM); MIC (S. aureus GC 6469; Mouse Serum pre-incubation): 2 µg/mL (≈ 2.83 µM); MIC (S. aureus GC 6469; Water pre-incubation): 4 µg/mL (≈ 5.67 µM); MIC (E. faecalis GC 4555; Mouse Serum pre-incubation): 2 µg/mL (≈ 2.83 µM); MIC (E. faecalis GC 4555; Water pre-incubation): 8 µg/mL (≈ 11.3 µM); MIC (E. faecalis GC 2265; Mouse Serum pre-incubation): 2 µg/mL (≈ 2.83 µM); MIC (E. faecalis GC 2265; Water pre-incubation): 8 µg/mL (≈ 11.3 µM); MIC (E. faecalis GC 2242; Mouse Serum pre-incubation): 2 µg/mL (≈ 2.83 µM); MIC (E. faecalis GC 2242; Water pre-incubation): 8 µg/mL (≈ 11.3 µM); MIC (S. agalactiae GC 4564; Mouse Serum pre-incubation): 16 µg/mL (≈ 22.7 µM); MIC (S. agalactiae GC 4564; Water pre-incubation): 16 µg/mL (≈ 22.7 µM); MIC (Staph.; [1]): 1 to 8 µg/mL (≈ 1.42 to 11.3 µM); MIC (Staph.; [2]): 2 to 8 µg/mL (≈ 2.83 to 11.3 µM)
CCCN(CC(=O)Nc1cc(N(C)C)c2c(c1O)C(=O)C1=C(O)[C@]3(O)C(=O)C(C(N)=O)=C(O)[C@@H](N(C)C)[C@@H]3C[C@@H]1C2)C(=O)OCC [Example 15, ethyl 2-{[(5aR,6aS,7S,10aS)-9-(aminocarbonyl)-4,7-bis(dimethylamino)-1,8,10a,11-tetrahydroxy-10,12-dioxo-5,5a,6,6a,7,10,10a,12-octahydrotetracen-2-yl]amino}-2-oxoethyl(propyl)carbamate]	> 64	64 (≈ 99.4 µM)	32 (≈ 49.7 µM)	32 (≈ 49.7 µM)	> 64	> 64	64 (≈ 99.4 µM)	64 (≈ 99.4 µM)	64 (≈ 99.4 µM)	64 (≈ 99.4 µM)	> 64	> 64	1 (≈ 1.55 µM)	1 (≈ 1.55 µM)	> 64	> 64	32 (≈ 49.7 µM)	64 (≈ 99.4 µM)	> 64	> 64	MIC (P. aeruginosa GC 2214; Mouse Serum pre-incubation): > 64 µg/mL; MIC (P. aeruginosa GC 2214; Water pre-incubation): > 64 µg/mL; MIC (S. aureus GC 6467; Mouse Serum pre-incubation): 16 µg/mL (≈ 24.9 µM); MIC (S. aureus GC 6467; Water pre-incubation): 16 µg/mL (≈ 24.9 µM); MIC (S. aureus GC 4536; Mouse Serum pre-incubation): 2 µg/mL (≈ 3.11 µM); MIC (S. aureus GC 4536; Water pre-incubation): 4 µg/mL (≈ 6.21 µM); MIC (S. aureus GC 6469; Mouse Serum pre-incubation): 4 µg/mL (≈ 6.21 µM); MIC (S. aureus GC 6469; Water pre-incubation): 8 µg/mL (≈ 12.4 µM); MIC (E. faecalis GC 4555; Mouse Serum pre-incubation): 4 µg/mL (≈ 6.21 µM); MIC (E. faecalis GC 4555; Water pre-incubation): 8 µg/mL (≈ 12.4 µM); MIC (E. faecalis GC 2265; Mouse Serum pre-incubation): 8 µg/mL (≈ 12.4 µM); MIC (E. faecalis GC 2265; Water pre-incubation): 8 µg/mL (≈ 12.4 µM); MIC (E. faecalis GC 2242; Mouse Serum pre-incubation): 8 µg/mL (≈ 12.4 µM); MIC (E. faecalis GC 2242; Water pre-incubation): 8 µg/mL (≈ 12.4 µM); MIC (S. agalactiae GC 4564; Mouse Serum pre-incubation): 8 µg/mL (≈ 12.4 µM); MIC (S. agalactiae GC 4564; Water pre-incubation): 8 µg/mL (≈ 12.4 µM); MIC (Staph.; [1]): 2 to 16 µg/mL (≈ 3.11 to 24.9 µM); MIC (Staph.; [2]): 4 to 16 µg/mL (≈ 6.21 to 24.9 µM)
CCCN(CC(=O)Nc1cc(N(C)C)c2c(c1O)C(=O)C1=C(O)[C@]3(O)C(=O)C(C(N)=O)=C(O)[C@@H](N(C)C)[C@@H]3C[C@@H]1C2)C(=O)OCC(C)C [Example 16, isobutyl 2-{[(5aR,6aS,7S,10aS)-9-(aminocarbonyl)-4,7-bis(dimethylamino)-1,8,10a,11-tetrahydroxy-10,12-dioxo-5,5a,6,6a,7,10,10a,12-octahydrotetracen-2-yl]amino}-2-oxoethyl(propyl)carbamate]	64 (≈ 95.3 µM)	> 64	16 (≈ 23.8 µM)	64 (≈ 95.3 µM)	> 64	> 64	> 64	> 64	> 64	> 64	> 64	> 64	2 (≈ 2.98 µM)	4 (≈ 5.95 µM)	> 64	> 64	16 (≈ 23.8 µM)	64 (≈ 95.3 µM)	> 64	> 64	MIC (P. aeruginosa GC 2214; Mouse Serum pre-incubation): > 64 µg/mL; MIC (P. aeruginosa GC 2214; Water pre-incubation): > 64 µg/mL; MIC (S. aureus GC 6467; Mouse Serum pre-incubation): 8 µg/mL (≈ 11.9 µM); MIC (S. aureus GC 6467; Water pre-incubation): 8 µg/mL (≈ 11.9 µM); MIC (S. aureus GC 4536; Mouse Serum pre-incubation): 2 µg/mL (≈ 2.98 µM); MIC (S. aureus GC 4536; Water pre-incubation): 4 µg/mL (≈ 5.95 µM); MIC (S. aureus GC 6469; Mouse Serum pre-incubation): 4 µg/mL (≈ 5.95 µM); MIC (S. aureus GC 6469; Water pre-incubation): 8 µg/mL (≈ 11.9 µM); MIC (E. faecalis GC 4555; Mouse Serum pre-incubation): 4 µg/mL (≈ 5.95 µM); MIC (E. faecalis GC 4555; Water pre-incubation): 8 µg/mL (≈ 11.9 µM); MIC (E. faecalis GC 2265; Mouse Serum pre-incubation): 4 µg/mL (≈ 5.95 µM); MIC (E. faecalis GC 2265; Water pre-incubation): 8 µg/mL (≈ 11.9 µM); MIC (E. faecalis GC 2242; Mouse Serum pre-incubation): 8 µg/mL (≈ 11.9 µM); MIC (E. faecalis GC 2242; Water pre-incubation): 8 µg/mL (≈ 11.9 µM); MIC (S. agalactiae GC 4564; Mouse Serum pre-incubation): 16 µg/mL (≈ 23.8 µM); MIC (S. agalactiae GC 4564; Water pre-incubation): 16 µg/mL (≈ 23.8 µM); MIC (Staph.; [1]): 2 to 8 µg/mL (≈ 2.98 to 11.9 µM); MIC (Staph.; [2]): 4 to 8 µg/mL (≈ 5.95 to 11.9 µM)
